In patent US20210222144A1, “SELECTIVE HYDRATION OF OLEIC ACID DERIVATIVES” (priority 2018, published 2021):

Target: T1, OhyA wild type (WT) (Elizabethkingia meningoseptica, UniProt C7DLJ6)
T1 construct: His tag with TEV site by the vector name (HISTEV); expressed in transfected cells; host or cells: E. coli BL21 Star (DE3)
Assay: Whole cell E. coli biotransformation, hydration of oleic acid and derivatives by OhyA wild type
Type: cell-based
Conditions: whole cell E. coli biocatalyst, 2 mM substrate, 30° C., pH 6.0
Protocol: (§1) Free fatty acids were identified and analyzed by gas chromatography-mass spectrometry (GC-MS) and comparison of derived mass fragmentation spectra to authentic standards. A HP-5 column (crosslinked 5% Ph-Me Siloxane; 30 m length, 0.25 mm in diameter and 0.25 μm film thickness) on a Hewlett-Packard 6890 Series II GC equipped with a mass selective detector was used. Sample aliquots of 1 μL were injected in split mode (split ratio 30:1) at 240° C. injector temperature and 290° C. detector temperature with N2 as carrier at a flow rate set to 36 cm s^−1 in constant flow mode. The temperature program was as follows: 100° C. for 1 min, 15° C. min^−1 to 300° C., hold for 5 min. The total run time was 19.33 min. The mass selective detector was operated in a mass range of 50-400 amu at an electron multiplier voltage of 1765 V. Results were evaluated with the GC-MS Data Analysis software (Agilent Technologies, Austria).
(§2) OhyA was recombinantly expressed in E. coli. First, a pre-culture was inoculated with E. coli BL21 Star (DE3) cells harboring pMS470-HISTEV-OhyA wild type enzyme or variants, and was grown in LB supplemented with 100 μg mL^−1 ampicillin at 28° C. and 130 rpm overnight. Main cultures were inoculated to an OD600 of 0.1 in auto induction medium (AIM)—Terrific Broth Base including Trace elements (Formedium, UK) containing 100 μg mL^−1 ampicillin. Recombinant protein was expressed at 28° C. and 130 rpm for 22 h. Cells were harvested by centrifugation for 10 min at 4,400×g and 22° C. and were instantly used for whole cell biotransformation or were frozen at −20° C. until protein purification.
(§3) For bioconversion assays of oleic acid (OA) and OA derivatives, i.e. substrates (1) to (10), 50 OD600 units of thus prepared cells, which are corresponding to a cell dry weight of 50 mg, were resuspended in 50 mM HEPES, pH 6.0, supplemented with 100 mM glucose and 0.2 mM FAD in Pyrex® glass culture tubes (Corning, N.Y.). Biotransformation at 1 mL scale were started by adding substrate to a final concentration of 2 mM from an ethanolic stock solution (100 mM). n-pentadecanoic acid (1 mM) was used as internal standard. The reactions were conducted in the presence of 2% (v/v) of ethanol as co-solvent at 30° C. and shaking at 150 rpm at a defined angle of the Pyrex® tubes (55°). Biotransformation were performed for 22 h or 96 h. The assays were quenched by acidification to pH 2.0 with 0.12 M HCl, and fatty acid derivatives were extracted twice with 2 mL of ethyl acetate while agitating on a Vibrax VXR basic shaker (IKA, Germany) for 30 min. The suspension was centrifuged for 5 min at 2,900×g and 22° C. to improve the separation of the phases. Combined organic phases were concentrated under a N2 stream. Fatty acid derivatives were silylated with 10 μL of pyridine and 50 μL of N,O-bis(trimethylsilyl)trifluoroacetamide (BSTFA). After incubation for 30 min at 500 rpm, extracts were diluted with 200 μL of ethyl acetate and analyzed by GC-MS. […]

T1 sequence (C7DLJ6 whole entry): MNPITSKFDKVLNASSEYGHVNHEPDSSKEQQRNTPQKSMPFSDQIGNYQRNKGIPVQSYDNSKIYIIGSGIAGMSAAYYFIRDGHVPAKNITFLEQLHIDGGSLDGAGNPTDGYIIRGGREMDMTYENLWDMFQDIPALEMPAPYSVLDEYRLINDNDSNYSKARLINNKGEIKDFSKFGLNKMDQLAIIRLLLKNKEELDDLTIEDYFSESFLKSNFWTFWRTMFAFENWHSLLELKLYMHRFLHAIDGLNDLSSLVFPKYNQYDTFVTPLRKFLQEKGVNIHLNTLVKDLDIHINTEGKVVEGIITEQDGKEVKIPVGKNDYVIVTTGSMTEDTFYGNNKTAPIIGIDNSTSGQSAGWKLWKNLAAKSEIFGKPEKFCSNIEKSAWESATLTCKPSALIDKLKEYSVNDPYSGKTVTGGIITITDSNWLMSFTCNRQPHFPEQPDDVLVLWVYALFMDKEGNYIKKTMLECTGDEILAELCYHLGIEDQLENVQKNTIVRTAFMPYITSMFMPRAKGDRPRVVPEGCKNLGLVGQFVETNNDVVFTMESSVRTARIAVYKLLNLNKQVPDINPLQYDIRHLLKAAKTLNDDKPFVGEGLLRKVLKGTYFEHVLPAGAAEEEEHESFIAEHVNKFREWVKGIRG

Compound | Apparent hydration activity normalized for biomass, OhyA WT [mU g^−1 CDW]
CCCCCCCC/C=C\CCCCCCCC(=O)OC [Entry 6, methyl oleate] | 0.3 ± 0.1
CCCCCCCC/C=C\CCCCCCCCO [Entry 5, oleyl alcohol] | 8.4 ± 2.1
CCCCCCCC/C=C\CCCCCCCC(=O)OCCCC [Entry 10, n-butyl oleate] | 0.1 ± 0.1
CCCCCCCC/C=C\CCCCCCCC(=O)OCC [Entry 7, ethyl oleate] | 0.2 ± 0.1
CCCCCCCC/C=C\CCCCCCCC(=O)NO [Entry 4, N-hydroxy oleamide] | 3.4 ± 0.7
CCCCCCCC/C=C\CCCCCCCC(=O)OC(C)C [Entry 8, i-propyl oleate] | 0.1 ± 0.1
CCCCCCCC/C=C\CCCCCCCC(N)=O [Entry 3, oleamide] | 11.1 ± 0.7
CCCCCCCC/C=C\CCCCCCCC(=O)OCCC [Entry 9, n-propyl oleate] | 0.2 ± 0.1
CCCCCCCC/C=C\CCCCCCCC(=O)O [Entry 1, oleic acid] | 26.3 ± 0.2

Target: T2, OhyA Q265A/T436A/N438A (Elizabethkingia meningoseptica, UniProt C7DLJ6, N438A/Q265A/T436A)
T2 construct: His tag with TEV site by the vector name (HISTEV); expressed in transfected cells; host or cells: E. coli BL21 Star (DE3)
T2 sequence (C7DLJ6 whole entry Q265A/T436A/N438A): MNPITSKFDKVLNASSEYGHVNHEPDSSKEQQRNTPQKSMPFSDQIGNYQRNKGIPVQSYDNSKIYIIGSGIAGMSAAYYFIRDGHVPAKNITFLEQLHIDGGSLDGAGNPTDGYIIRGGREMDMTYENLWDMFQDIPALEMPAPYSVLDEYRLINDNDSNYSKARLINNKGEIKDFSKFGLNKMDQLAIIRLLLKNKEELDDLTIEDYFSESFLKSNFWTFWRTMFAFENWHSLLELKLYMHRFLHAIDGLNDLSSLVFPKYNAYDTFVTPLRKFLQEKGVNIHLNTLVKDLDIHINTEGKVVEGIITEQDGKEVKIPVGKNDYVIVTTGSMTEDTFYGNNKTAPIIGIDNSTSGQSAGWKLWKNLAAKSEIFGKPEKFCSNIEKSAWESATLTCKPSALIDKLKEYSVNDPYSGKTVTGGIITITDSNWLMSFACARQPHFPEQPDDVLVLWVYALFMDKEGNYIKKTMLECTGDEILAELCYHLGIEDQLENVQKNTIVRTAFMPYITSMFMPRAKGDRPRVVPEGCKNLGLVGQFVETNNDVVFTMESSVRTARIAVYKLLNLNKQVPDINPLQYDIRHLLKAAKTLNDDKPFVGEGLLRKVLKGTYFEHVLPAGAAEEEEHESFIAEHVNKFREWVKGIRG
Assay: Whole cell E. coli biotransformation, hydration of oleic acid and derivatives by mutant OhyA Q265A/T436A/N438A
Type: cell-based
Conditions: OhyA Q265A/T436A/N438A versus wt-OhyA
Protocol: as §1, §2, §3

Compound | relative hydration activity compared to wt-OhyA
CCCCCCCC/C=C\CCCCCCCC(=O)OC [Entry 6, methyl oleate] | 6 fold
CCCCCCCC/C=C\CCCCCCCCO [Entry 5, oleyl alcohol] | at least 2 fold
CCCCCCCC/C=C\CCCCCCCC(=O)OCC [Entry 7, ethyl oleate] | 6 fold
CCCCCCCC/C=C\CCCCCCCC(=O)NO [Entry 4, N-hydroxy oleamide] | at least 5 fold
CCCCCCCC/C=C\CCCCCCCC(=O)OCCC [Entry 9, n-propyl oleate] | 20 fold

Same assay, conditions: abs. conf. at C-10: R; table does not separate WT and mutant

Compound | e.e. of hydrated product [%]
CCCCCCCC/C=C\CCCCCCCC(=O)OC [Entry 6, methyl oleate] | >99
CCCCCCCC/C=C\CCCCCCCCN [Entry 2, oleyl amine] | >99
CCCCCCCC/C=C\CCCCCCCCO [Entry 5, oleyl alcohol] | >99
CCCCCCCC/C=C\CCCCCCCC(=O)OCCCC [Entry 10, n-butyl oleate] | >99
CCCCCCCC/C=C\CCCCCCCC(=O)OCC [Entry 7, ethyl oleate] | >99
CCCCCCCC/C=C\CCCCCCCC(=O)NO [Entry 4, N-hydroxy oleamide] | >99
CCCCCCCC/C=C\CCCCCCCC(=O)OC(C)C [Entry 8, i-propyl oleate] | >99
CCCCCCCC/C=C\CCCCCCCC(N)=O [Entry 3, oleamide] | >99
CCCCCCCC/C=C\CCCCCCCC(=O)OCCC [Entry 9, n-propyl oleate] | >99
CCCCCCCC/C=C\CCCCCCCC(=O)O [Entry 1, oleic acid] | >99

Same assay, conditions: whole cell E. coli biocatalyst, 2 mM substrate, 30° C., pH 6.0

Compound | Apparent hydration activity normalized for biomass, OhyA Q265A/T436A/N438A [mU g^−1 CDW]
CCCCCCCC/C=C\CCCCCCCC(=O)OC [Entry 6, methyl oleate] | 2.5 ± 0.2
CCCCCCCC/C=C\CCCCCCCCO [Entry 5, oleyl alcohol] | 15.5 ± 1.0
CCCCCCCC/C=C\CCCCCCCC(=O)OCCCC [Entry 10, n-butyl oleate] | 0.8 ± 0.1
CCCCCCCC/C=C\CCCCCCCC(=O)OCC [Entry 7, ethyl oleate] | 1.7 ± 0.1
CCCCCCCC/C=C\CCCCCCCC(=O)NO [Entry 4, N-hydroxy oleamide] | 13.4 ± 2.5
CCCCCCCC/C=C\CCCCCCCC(=O)OC(C)C [Entry 8, i-propyl oleate] | 1.5 ± 0.1
CCCCCCCC/C=C\CCCCCCCC(N)=O [Entry 3, oleamide] | 10.7 ± 0.3
CCCCCCCC/C=C\CCCCCCCC(=O)OCCC [Entry 9, n-propyl oleate] | 0.9 ± 0.1
CCCCCCCC/C=C\CCCCCCCC(=O)O [Entry 1, oleic acid] | 28.4 ± 0.3

Target: T3, OhyA Q265A/N438A (Elizabethkingia meningoseptica, UniProt C7DLJ6, N438A/Q265A)
T3 construct: His tag with TEV site by the vector name (HISTEV); expressed in transfected cells; host or cells: E. coli BL21 Star (DE3)
T3 sequence (C7DLJ6 whole entry Q265A/N438A): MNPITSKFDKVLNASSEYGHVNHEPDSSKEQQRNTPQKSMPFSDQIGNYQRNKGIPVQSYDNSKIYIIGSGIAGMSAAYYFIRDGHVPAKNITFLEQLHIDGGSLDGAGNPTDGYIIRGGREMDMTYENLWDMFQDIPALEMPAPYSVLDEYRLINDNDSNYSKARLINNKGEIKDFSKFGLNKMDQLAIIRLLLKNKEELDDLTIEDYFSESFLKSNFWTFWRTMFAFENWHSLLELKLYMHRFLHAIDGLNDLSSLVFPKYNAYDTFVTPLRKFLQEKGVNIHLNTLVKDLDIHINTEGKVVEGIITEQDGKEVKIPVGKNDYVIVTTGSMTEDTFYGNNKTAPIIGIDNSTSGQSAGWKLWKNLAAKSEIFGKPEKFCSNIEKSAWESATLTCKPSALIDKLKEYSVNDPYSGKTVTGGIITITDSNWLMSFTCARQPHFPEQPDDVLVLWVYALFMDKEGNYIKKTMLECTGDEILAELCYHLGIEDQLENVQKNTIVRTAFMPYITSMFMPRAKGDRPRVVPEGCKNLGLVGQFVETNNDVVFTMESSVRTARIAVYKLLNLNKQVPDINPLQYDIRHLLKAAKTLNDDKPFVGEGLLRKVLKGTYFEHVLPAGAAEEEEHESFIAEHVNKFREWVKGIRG
Assay: Bioconversion with modified OhyA variant Q265A/N438A
Type: cell-based
Conditions: OhyA Q265A/N438A in bioconversions
Protocol: as §2
For bioconversion assays of oleic acid (OA) and OA derivatives, i.e. substrates (1) to (10), 50 OD600 units of thus prepared cells, which are corresponding to a cell dry weight of 50 mg, were resuspended in 50 mM HEPES, pH 6.0, supplemented with 100 mM glucose and 0.2 mM FAD in Pyrex® glass culture tubes (Corning, N.Y.). Biotransformation at 1 mL scale were started by adding substrate to a final concentration of 2 mM from an ethanolic stock solution (100 mM). n-pentadecanoic acid (1 mM) was used as internal standard. […] After incubation for 30 min at 500 rpm, extracts were diluted with 200 μL of ethyl acetate and analyzed by GC-MS.

Compound | enhanced relative hydration activity
CCCCCCCC/C=C\CCCCCCCC(=O)NO [Entry 4, N-hydroxy oleamide] | at least 5 fold

Target: T4, mutant OhyA Q265A/T436A/N438A (Elizabethkingia meningoseptica, UniProt C7DLJ6, N438A/Q265A/T436A)
T4 construct: His tag with TEV site by the vector name (HISTEV); made in house; host or cells: E. coli BL21 Star (DE3)
T4 sequence (C7DLJ6 whole entry Q265A/T436A/N438A): as the sequence (C7DLJ6 whole entry Q265A/T436A/N438A) above
Assay: Anaerobic in vitro hydration with purified OhyA after reduction of the FAD cofactor
Type: biochemical
Conditions: purified enzyme, reduced FAD, overnight incubation, wt-OhyA compared with mutant
Protocol: For purification of the recombinant OhyA, cell pellets were resuspended in 50 mM HEPES, pH 7.4, containing 10 mM imidazole. Cells were lysed by ultrasonication for 4 min with a Sonifier® 250 (Branson, Danbury, Conn.) setting the duty cycle to 80% and the output control to level 8. Cell free extract (CFE) was separated from the total cell lysate (TCL) by centrifugation for 35 min at 48,300×g and 4° C., and was filtered through 0.22 μm filters (Millipore, Bedford, Mass.) prior to loading it onto a pre-equilibrated self-packed Ni-NTA affinity chromatography column (GE Healthcare, United Kingdom). Prior to any further analyses, purified OhyA was incubated with a 10-fold molar excess of FAD over night at 4° C. Unbound FAD was removed from the protein aliquot by buffer exchange via PD-10 desalting columns (GE Healthcare, United Kingdom) according to the recommended protocol.
For reduction of the enzyme-bound flavin cofactor, wt-OhyA and mutant Q265A/T436A/N438A were diluted in 50 mM HEPES, pH 7.4, containing 50 mM NaCl, 5 mM EDTA, 1 μM 5-deazariboflavin and 4 μM methyl viologen to give an absorption of approximately 0.2 AU at 440 nm. The solution was transferred to a cuvette and oxygen was removed by incubation for at least 2 h in a glove box. Afterwards, the cofactor was reduced by anaerobic photoreduction or chemical reduction with dithiothreitol (DTT). […]

Compound | peak at the expected retention time of the hydrated product (GC-MS)
CCCCCCCC/C=C\CCCCCCCC(=O)OC [Entry 6, methyl oleate] | only in the case of the variant

Target: oleate hydratase from Elizabethkingia meningoseptica (OhyA, EC 4.2.1.53) (Elizabethkingia meningoseptica, UniProt C7DLJ6)
Sequence (C7DLJ6 whole entry): as the sequence (C7DLJ6 whole entry) above
Assay: not given
Conditions: wild-type OhyA, without co-factor recycling; cited from earlier work

Compound | enantiomeric excess (ee) of (R)-10-hydroxy stearic acid
CCCCCCCC/C=C\CCCCCCCC(=O)O [Entry 1, oleic acid] | at least 98%
